Reference: patent publication US5498618A, “4-amino-N-(4-methyl-4-piperidinyl)-2-methoxybenzamides for treating smooth muscle contraction disorders” (Janssen Pharmaceutica N.V., priority 1993, dated 1996)

What was measured:
5HT3 serotonin receptor = target: T1, 5HT3 serotonin receptor (Mus musculus, UniProt P23979); assay: 5HT3 receptor binding, [3H]GR65630 displacement; settings: read-out: IC50 (inhibition of [3H]-ligand binding) (converted)
T1 construct: Cell membrane fractions, prepared from tissue homogenates or cells; endogenous in cells
T1 sequence (P23979 24-489): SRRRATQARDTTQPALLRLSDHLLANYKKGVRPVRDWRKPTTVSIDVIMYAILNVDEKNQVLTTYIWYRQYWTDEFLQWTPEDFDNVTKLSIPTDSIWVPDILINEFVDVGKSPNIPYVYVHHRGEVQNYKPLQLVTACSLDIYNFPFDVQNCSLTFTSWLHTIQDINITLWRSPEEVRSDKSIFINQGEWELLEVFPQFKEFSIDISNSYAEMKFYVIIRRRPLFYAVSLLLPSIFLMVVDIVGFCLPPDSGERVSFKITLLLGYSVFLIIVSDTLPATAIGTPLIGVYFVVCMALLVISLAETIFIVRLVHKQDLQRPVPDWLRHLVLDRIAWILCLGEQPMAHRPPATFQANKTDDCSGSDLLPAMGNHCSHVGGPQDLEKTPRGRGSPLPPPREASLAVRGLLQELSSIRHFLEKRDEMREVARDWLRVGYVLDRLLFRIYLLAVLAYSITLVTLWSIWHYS
Description: (§1) Cell membrane fractions, prepared from tissue homogenates or cells, were incubated with a radioactive [^3 H]-labelled substance (described hereinafter as the [^3 H]-ligand) known to bind specifically to a particular receptor, thus labeling this receptor. The [^3 H]-ligand used for each receptor site is mentioned in Table 1, as are the references wherein the experimental conditions of these tests are described.
(§2) After the incubation, the labelled membranes were harvested on glass fibre filters and rinsed twice with 5 ml of a cold buffer solution to remove non-bound [^3 H]-ligands. Subsequently the glass fibre filters, with the harvested membranes, were placed in plastic mini-vials and 2.0 ml of Ultima Gold™ scintillation cocktail was added. Vials were vigorously shaken and kept at 4° C. for 24 h. Thereafter radioactivity was counted in a liquid scintillation spectrometer. Said radioactivity is proportional to the membrane labelling by the [^3 H]-ligand.
(§3) Specific membrane labelling by the [^3 H]-ligand was distinguished from the non-specific membrane labelling by selectively inhibiting the labelling of the receptor site by another substance (unlabelled) known to compete with the [^3 H]-ligand for binding to said receptor site. The remaining non-specific labelling was substracted from all assays concerning said receptor site.
(§4) During the incubation the test compounds were able to compete with the [^3 H]-ligand for binding with the receptor. Subsequently the membranes were harvested and the radioactivity was measured as described above.
(§5) A compound having a high binding affinity is capable of displacing the [^3 H]-ligand from binding to the receptor, and consequently the radioactivity of the harvested membranes will be diminished. […] The values presented in table 1 are IC50 -values, i.e. the molar concentrations at which the test compound was able to inhibit 50% of the [^3 H]-ligand-binding
(§6) In the table "5HT2, 5HT1A, 5HT1B, 5HT1D, 5HT1C, 5HT3 " all refer to different types of serotonin receptor sites; "α2 " refers to the α2 -adrenergic receptor site; "H1 " refers to the histamine-H1 receptor site; and "D2 " refers to the dopamine-D2 -receptor site.
(f) Hoyer & Neijt, Eur. J. Pharmacol., 143, 191, 1987;

5HT1A serotonin receptor = target: T2, 5HT1A serotonin receptor (Homo sapiens, UniProt P08908); assay: 5HT1A receptor binding, [3H]8OHDPAT displacement; settings: read-out: IC50 (inhibition of [3H]-ligand binding) (converted)
T2 construct: expressed in transfected cells
T2 sequence (P08908 1-422): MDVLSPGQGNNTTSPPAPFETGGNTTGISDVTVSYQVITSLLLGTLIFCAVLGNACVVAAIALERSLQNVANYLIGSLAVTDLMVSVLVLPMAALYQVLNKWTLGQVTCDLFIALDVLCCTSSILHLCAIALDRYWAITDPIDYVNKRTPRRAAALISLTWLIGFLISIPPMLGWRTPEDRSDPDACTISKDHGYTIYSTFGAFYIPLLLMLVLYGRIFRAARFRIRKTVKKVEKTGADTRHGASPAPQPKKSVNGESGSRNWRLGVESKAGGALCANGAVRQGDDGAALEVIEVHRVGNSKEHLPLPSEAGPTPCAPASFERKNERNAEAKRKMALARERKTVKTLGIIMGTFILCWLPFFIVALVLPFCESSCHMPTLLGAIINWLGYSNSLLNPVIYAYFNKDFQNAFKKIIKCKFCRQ
Description: as §1, §2, §3, §4, §5, §6

dopamine-D2 receptor = target: T3, dopamine-D2 receptor (Rattus norvegicus, UniProt P61169); assay: dopamine-D2 receptor binding, [3H]haloperidol displacement; settings: read-out: IC50 (inhibition of [3H]-ligand binding) (converted)
T3 construct: Cell membrane fractions, prepared from tissue homogenates or cells; from tissue
T3 sequence (P61169 whole entry): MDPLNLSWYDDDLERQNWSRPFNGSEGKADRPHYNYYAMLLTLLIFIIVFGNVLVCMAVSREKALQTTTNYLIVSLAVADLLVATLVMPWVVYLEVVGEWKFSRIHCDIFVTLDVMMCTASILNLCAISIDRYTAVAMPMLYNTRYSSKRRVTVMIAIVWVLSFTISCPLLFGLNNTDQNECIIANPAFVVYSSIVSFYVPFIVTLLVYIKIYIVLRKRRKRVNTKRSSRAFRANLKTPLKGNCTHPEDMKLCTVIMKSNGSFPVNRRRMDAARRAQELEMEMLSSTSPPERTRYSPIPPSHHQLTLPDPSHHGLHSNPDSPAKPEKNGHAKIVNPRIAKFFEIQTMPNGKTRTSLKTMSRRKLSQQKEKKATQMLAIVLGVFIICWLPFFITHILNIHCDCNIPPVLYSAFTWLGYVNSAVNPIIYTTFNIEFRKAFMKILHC
Description: as §1, §2, §3, §4, §5, §6

histamine-H1 receptor = target: T4, histamine-H1 receptor (Cavia porcellus, UniProt P31389); assay: histamine-H1 receptor binding, [3H]pyrilamine displacement; settings: read-out: IC50 (inhibition of [3H]-ligand binding) (converted)
T4 construct: Cell membrane fractions, prepared from tissue homogenates or cells; from tissue
T4 sequence (P31389 whole entry): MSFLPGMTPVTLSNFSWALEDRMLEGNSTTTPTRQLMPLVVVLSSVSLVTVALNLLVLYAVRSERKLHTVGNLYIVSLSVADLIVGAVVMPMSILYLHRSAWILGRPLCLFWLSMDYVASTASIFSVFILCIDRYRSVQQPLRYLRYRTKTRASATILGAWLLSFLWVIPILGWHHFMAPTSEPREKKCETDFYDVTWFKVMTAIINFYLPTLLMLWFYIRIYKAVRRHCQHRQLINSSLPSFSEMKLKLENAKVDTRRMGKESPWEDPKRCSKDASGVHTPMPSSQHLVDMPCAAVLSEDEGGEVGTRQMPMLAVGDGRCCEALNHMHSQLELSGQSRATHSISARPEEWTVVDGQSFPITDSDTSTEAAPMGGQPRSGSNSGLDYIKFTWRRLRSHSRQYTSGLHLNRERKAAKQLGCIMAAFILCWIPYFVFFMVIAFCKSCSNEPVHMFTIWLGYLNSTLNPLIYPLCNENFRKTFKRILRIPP
Description: as §1, §2, §3, §4, §5, §6
(h) Chang et al., Eur. J. Pharmacol., 48, 463-464, 1978; Laduron et al.,

5HT1B serotonin receptor = target: T5, 5HT1B serotonin receptor (Rattus norvegicus, UniProt P28564); assay: 5HT1B receptor binding, [3H]serotonin displacement; settings: read-out: IC50 (inhibition of [3H]-ligand binding) (converted)
T5 construct: Cell membrane fractions, prepared from tissue homogenates or cells; from tissue
T5 sequence (P28564 whole entry): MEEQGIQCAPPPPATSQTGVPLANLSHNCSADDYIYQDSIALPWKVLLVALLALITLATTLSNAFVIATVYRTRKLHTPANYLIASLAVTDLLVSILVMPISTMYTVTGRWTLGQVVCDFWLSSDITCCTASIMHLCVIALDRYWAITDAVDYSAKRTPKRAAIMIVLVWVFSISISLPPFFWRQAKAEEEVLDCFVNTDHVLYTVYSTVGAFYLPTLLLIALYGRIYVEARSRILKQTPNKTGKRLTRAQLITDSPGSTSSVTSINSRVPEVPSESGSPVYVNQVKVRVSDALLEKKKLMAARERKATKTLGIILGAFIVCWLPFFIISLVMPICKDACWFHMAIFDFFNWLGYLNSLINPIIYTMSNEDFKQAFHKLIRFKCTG
Description: as §1, §2, §3, §4, §5, §6

5HT2 serotonin receptor = target: T6, 5HT2 serotonin receptor (Rattus norvegicus, UniProt P14842); assay: 5HT2 receptor binding, [3H]ketanserin displacement; settings: read-out: IC50 (inhibition of [3H]-ligand binding) (converted)
T6 construct: Cell membrane fractions, prepared from tissue homogenates or cells; from tissue
T6 sequence (P14842 whole entry): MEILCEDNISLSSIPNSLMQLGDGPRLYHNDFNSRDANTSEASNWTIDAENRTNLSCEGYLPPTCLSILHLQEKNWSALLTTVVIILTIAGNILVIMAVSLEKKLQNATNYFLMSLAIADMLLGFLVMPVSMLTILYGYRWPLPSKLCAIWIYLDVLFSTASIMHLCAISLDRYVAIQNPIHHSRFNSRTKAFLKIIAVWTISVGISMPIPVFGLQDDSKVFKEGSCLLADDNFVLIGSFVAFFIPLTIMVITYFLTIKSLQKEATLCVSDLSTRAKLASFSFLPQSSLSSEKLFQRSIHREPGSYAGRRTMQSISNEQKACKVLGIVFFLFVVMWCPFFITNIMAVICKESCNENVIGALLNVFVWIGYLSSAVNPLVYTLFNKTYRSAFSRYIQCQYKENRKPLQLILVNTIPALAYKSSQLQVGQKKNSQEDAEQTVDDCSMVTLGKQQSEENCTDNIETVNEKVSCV
Description: as §1, §2, §3, §4, §5, §6

[1] = test system: serotonin-induced contraction of caudal artery of the rat; assay: Antagonistic activity on the effect of serotonin on the caudal artery of the rat; format: cell-based; settings: 5 min; rat caudal artery strips; serotonin 40 ng/ml; 5 minutes after adding the drug; read-out: ED50 (minimal concentration which reduces the amplitude of the contractions by at least 50% of its normal value)
Description: Antagonistic activity on the effect of serotonin on the caudal artery of the rat.
Caudal arteries from the fasted male rats (210-235 g) were used in the test. Two helical strips having a length of 5-6 cm and a width of 2 mm were obtained from each artery and mounted vertically in a 100 ml organ bath containing an oxygenated Krebs-Henseleit solution. Submaximal contractions of the arterial strips were produced by adding single doses of serotonin (40 ng/ml) to the organ bath for 2 minutes with each time an interval of 10 minutes. The amplitude of the contractions was measured before and 5 minutes after adding the drug. After washing out, the agonist was added again three times in order to see whether the contraction was restored and normalized. […] The ED50 -values are the minimal concentrations of the concerned drugs which reduce the amplitude of the contractions by at least 50% of its normal value.

| Compound | IC50 (5HT3 serotonin receptor) | IC50 (5HT1A serotonin receptor) | IC50 (dopamine-D2 receptor) | IC50 (histamine-H1 receptor) | IC50 (5HT1B serotonin receptor) | IC50 (5HT2 serotonin receptor) | IC50 [1] |
| --- | --- | --- | --- | --- | --- | --- | --- |
| COc1cc(N=[N+]=[N-])c(Br)cc1C(=O)NC1(C)CCN(CCCOc2ccc(F)cc2)CC1 [Compound 8, 4-azido-5-bromo-N-[1-[3-(4-fluorophenoxy)propyl]-4-methyl-4-piperidinyl]-2-methoxybenzamide] | 8320 nM | 219 nM | 63.1 nM | 8510 nM | 3310 nM | 3.55 nM | – |
| COc1cc(N)c(Br)cc1C(=O)NC1(C)CCN(CCCOc2ccc(F)cc2)CC1 [Compound 3, 4-amino-5-bromo-N-[1-[3-(4-fluorophenoxy)propyl]-4-methyl-4-piperidinyl]-2-methoxybenzamide] | 1440 nM | 407 nM | 47.9 nM | 10000 nM | 6610 nM | 0.661 nM | – |
| COc1cc(N)c(Cl)cc1C(=O)NC1(C)CCN(CCCOc2ccc(F)cc2Br)CC1 [Compound 4, 4-amino-N-[1-[3-(2-bromo-4-fluorophenoxy)propyl]-4-methyl-4-piperidinyl]-5-chloro-2-methoxybenzamide] | 191 nM | 417 nM | 22.9 nM | 2880 nM | 10000 nM | 0.631 nM | 0.12 nM |
| COc1cc(N)c(I)cc1C(=O)NC1(C)CCN(CCCOc2ccc(F)cc2)CC1 [Compound 1, 4-amino-N-[1-[3-(4-fluorophenoxy)propyl]-4-methyl-4-piperidinyl]-5-iodo-2-methoxybenzamide] | 4170 nM | 457 nM | 27.5 nM | 6460 nM | 8910 nM | 0.603 nM | 0.27 nM |
| COc1cc(N=[N+]=[N-])c(I)cc1C(=O)NC1(C)CCN(CCCOc2ccc(F)cc2)CC1 [Compound 7, 4-azido-N-[1-[3-(4-fluorophenoxy)propyl]-4-methyl-4-piperidinyl]-5-iodo-2-methoxybenzamude hemihydrate] | 10000 nM | 89.1 nM | 66.1 nM | 7940 nM | 3240 nM | 7.41 nM | – |
| COc1cc(N)c(Cl)cc1C(=O)NC1(C)CCN(CCCOc2ccc(F)cc2)CC1 [Compound 2, 4-amino-5-chloro-N-[1-[3-(4-fluorophenoxy)propyl]-4-methyl-4-piperidinyl]-2-methoxybenzamide] | 1700 nM | 661 nM | 29.5 nM | 4570 nM | 6610 nM | 0.251 nM | 0.15 nM |
| COc1cc(N)ccc1C(=O)NC1(C)CCN(CCCOc2ccc(F)cc2)CC1 [Compound 5, 4-amino-N-[1-[3-(4-fluorophenoxy)propyl]-4-methyl-4-piperidinyl]-2-methoxybenzamide] | > 10000 nM | 2240 nM | 85.1 nM | 3720 nM | > 10000 nM | 0.178 nM | 0.213 nM |
